As a reminder, the inhibition is how much of the control response was suppressed.

SMILES strings stand for the structures.

27 compounds from patent US20240300935A1, “Nitrogen Oxide Donors of Beraprost Derivative and the Pharmaceutical Compositions with the Use Thereof” (GUANGZHOU KEMROCMED CO., LTD., priority 2021, published 2024) can be followed below.

Test [1] in a line: In vitro NO release test (Griess method). The settings on record: 200 μM test compound solution mixed with 200 μM L-cysteine solution, 37° C. The protocol:
NO was transiently oxidized in aqueous solution using released NO by Griess' method, NO^2− And Griess reagent form a complex, which has strong UV uptake at 540 nm to determine the amount of NO released by the compound. • 1) Preparation of solution: blank solution: 10 mL DMSO and 190 m L PBS mixed; G riess Reagent: sulfonamide (4.0 g), N-(1-naphthalyl) ethylenediamine dihydrochloride (0.2 g) and 10 mL 85% H3PO4 dissolved in 90 mL of distilled water, Blow until clear solution; L-cysteine solution: after accurate weighing of L-cysteine, Add a certain amount of PBS, Prepare a weighed 200 μM solution; Test compound solution: the exact weighing of the test compound, Dissolved in D MSO and diluted to a concentration of 1 mM, Then, when diluted in PBS, To a concentration of 200 μM.
2) Formulation of standard curve equation: prepare sodium nitrite solution concentration: 0 ,0 , 1, 3, 6, 12.5, 25, 50, 100 μmol/L, 150 μL of each concentration, add 50 μL of Griess reagent mix, incubated in 37° C. constant temperature shaker for 30 min, the plate reader measured each tube absorbance at 540 nm, after subtracting the blank solution reading, the standard curve equation . . . 78.56.13.25 • 3) Test compound test: mix 2 mL of the test compound solution and L-cysteine solution, incubate in 37° C. constant temperature shakers for 120 min, take 150 μL of each mixture, add 50 μL of Griess reagent, then incubate in 37° C. constant temperature shaker for 30 min, the microplate measured each tube absorbance at 540 nm, then subtract the blank solution reading and substitute the value into the standard curve equation to obtain NO release.
On the technique in general: Griess reagent forms a coloured azo dye with nitrite.

Test [2] relates to platelet aggregation induced by ADP. Description: Antiplatelet aggregation effect, ADP-induced, turbidimetry in platelet-rich plasma. Format: cell-based. The settings on record: Homo sapiens, 2 min; platelet rich plasma of healthy subjects; 25 μL of 50 nM compound solution in 225 μL plasma, 37° C. 2 min; ADP final 2 μM; read-out: The rate of platelet aggregation inhibition. The protocol:
• 1) Experimental material: ADP, epinephrine, collagen (bilBio) • 2) Experimental method: blood samples provided by healthy subjects were mixed blood with 3.8% citric acid solution and centrifuged at 160 r/min to obtain platelet-rich plasma. To calibrate the data, the obtained platelet-rich plasma was further centrifuged at 2000 r/min to obtain platelet-poor plasma, stored in a −20° C. refrigerator. Testing was performed using Born I's turbiometry. 225 μL of platelet rich plasma was added to the reaction cup, the embodiment compound was configured as 50 nM solution (25 m M Tris-acetate and 120 m M N a Cl), 25 μL of embodiment compound solution was added and after incubation at 37° C. for 2 min, 5 μL of ADP (final concentration 2 μM) was added for platelet aggregation induction. To assess the degree of platelet aggregation, the maximum absorbance value took the data after ADP, thus calculating the inhibition rate of ADP-induced platelet aggregation by each embodiment compound. According to the data in Table 6 below, the compounds of the present application embodiment all have a good effect of inhibiting the platelet aggregation induced by ADP.

Consider `CC#CCC(C)[C@@H](O)/C=C/[C@H]1[C@@H]2c3cccc(CCCC(=O)OCCCc4ccc(CO[N+](=O)[O-])cc4)c3O[C@@H]2C[C@@H]1O` (stereo partly drawn) [Compound 11], for which the “120 min NO^2−” value in test [1] is 10.1 µM. Also, in test [2], the inhibition at 0.005 µM turned out to be 67%.

Consider `CC#CCC(C)[C@@H](O)/C=C/[C@H]1[C@@H]2c3cccc(CCCC(=O)OCOc4c(S(=O)(=O)c5ccccc5)no[n+]4[O-])c3O[C@@H]2C[C@@H]1O` (stereo partly drawn) [Compound 32], for which, in test [1], the “120 min NO^2−” value was determined as 20.4 µM. For the same compound, the inhibition at 0.005 µM in test [2] is 55%.

Turning to `CC#CCC(C)[C@@H](O)/C=C/[C@H]1[C@@H]2c3cccc(CCCC(=O)OCCOc4no[n+]([O-])c4S(=O)(=O)c4ccccc4)c3O[C@@H]2C[C@@H]1O` (stereo partly drawn) [Compound 33], the “120 min NO^2−” value in test [1] amounted to 14.2 µM. In test [2], the inhibition at 0.005 µM stood at 82%.

For the compound `CC#CCC(C)[C@@H](O)/C=C/[C@H]1[C@@H]2c3cccc(CCCC(=O)OCCCCOC(=O)c4cccc(CO[N+](=O)[O-])c4)c3O[C@@H]2C[C@@H]1O` (stereo partly drawn) [Compound 27], the “120 min NO^2−” value in test [1] was found to be 11.9 µM. Further, the inhibition at 0.005 µM in test [2] is 35%.

On to `CC#CCC(C)[C@@H](O)/C=C/[C@H]1[C@@H]2c3cccc(CCCC(=O)OCCO[N+](=O)[O-])c3O[C@@H]2C[C@@H]1O` (stereo partly drawn) [Compound 1], for which the “120 min NO^2−” value in test [1] is 15.5 µM. Further, in test [2], the inhibition at 0.005 µM amounted to 78%.

On to `CC#CCC(C)[C@@H](O)/C=C/[C@H]1[C@@H]2c3cccc(CCCC(=O)OCCC(CO[N+](=O)[O-])CO[N+](=O)[O-])c3O[C@@H]2C[C@@H]1O` (stereo partly drawn) [Compound 29], for which the “120 min NO^2−” value in test [1] turned out to be 16.2 µM. Moreover, the inhibition at 0.005 µM in test [2] was 56%.

Consider `CC#CCC(C)[C@@H](O)/C=C/[C@H]1[C@@H]2c3cccc(CCCC(=O)OCCOCCO[N+](=O)[O-])c3O[C@@H]2C[C@@H]1O` (stereo partly drawn) [Compound 8], for which the “120 min NO^2−” value in test [1] was found to be 14.8 µM. Further, in test [2], the inhibition at 0.005 µM worked out at 61%.

As to `CC#CCC(C)[C@@H](O)/C=C/[C@H]1[C@@H]2c3cccc(CCCC(=O)OCCCCOC(=O)CCO[N+](=O)[O-])c3O[C@@H]2C[C@@H]1O` (stereo partly drawn) [Compound 19], the “120 min NO^2−” value in test [1] turned out to be 11.3 µM. Also, the inhibition at 0.005 µM in test [2] came to 69%.

With `CC#CCC(C)[C@@H](O)/C=C/[C@H]1[C@@H]2c3cccc(CCCC(=O)OCCCCCCO[N+](=O)[O-])c3O[C@@H]2C[C@@H]1O` (stereo partly drawn) [Compound 5], in test [1], the “120 min NO^2−” value turned out to be 11.8 µM. Moreover, the inhibition at 0.005 µM in test [2] amounted to 64%.

For `CC#CCC(C)[C@@H](O)/C=C/[C@H]1[C@@H]2c3cccc(CCCC(=O)OCCOC(=O)c4cccc(CO[N+](=O)[O-])c4)c3O[C@@H]2C[C@@H]1O` (stereo partly drawn) [Compound 25], the “120 min NO^2−” value in test [1] was 10.7 µM. Besides, the inhibition at 0.005 µM in test [2] was determined as 35%.

On to `CC#CCC(C)[C@@H](O)/C=C/[C@H]1[C@@H]2c3cccc(CCCC(=O)OCOC(=O)CCCCO[N+](=O)[O-])c3O[C@@H]2C[C@@H]1O` (stereo partly drawn) [Compound 16], for which the “120 min NO^2−” value in test [1] came out at 12.1 µM. In test [2], the inhibition at 0.005 µM came to 81%.

Regarding `CC#CCC(C)[C@@H](O)/C=C/[C@H]1[C@@H]2c3cccc(CCCC(=O)OCOC(=O)CCO[N+](=O)[O-])c3O[C@@H]2C[C@@H]1O` (stereo partly drawn) [Compound 10], the “120 min NO^2−” value in test [1] turned out to be 11.3 µM. For the same compound, in test [2], the inhibition at 0.005 µM was 54%.

Regarding `CC#CCC(C)[C@@H](O)/C=C/[C@H]1[C@@H]2c3cccc(CCCC(=O)OCCC4CCC(CO[N+](=O)[O-])CC4)c3O[C@@H]2C[C@@H]1O` (stereo partly drawn) [Compound 14], the “120 min NO^2−” value in test [1] was 9.6 µM. In test [2], the inhibition at 0.005 µM was determined as 48%.

Take `CC#CCC(C)[C@@H](O)/C=C/[C@H]1[C@@H]2c3cccc(CCCC(=O)OCOCCCO[N+](=O)[O-])c3O[C@@H]2C[C@@H]1O` (stereo partly drawn) [Compound 7]: in test [1], the “120 min NO^2−” value came to 17.7 µM. Also, the inhibition at 0.005 µM in test [2] stood at 44%.

For the compound `CC#CCC(C)[C@@H](O)/C=C/[C@H]1[C@@H]2c3cccc(CCCC(=O)OCCCO[N+](=O)[O-])c3O[C@@H]2C[C@@H]1O` (stereo partly drawn) [Compound 2], the “120 min NO^2−” value in test [1] worked out at 14.3 µM. Also, in test [2], the inhibition at 0.005 µM was found to be 66%.

With `CC#CCC(C)[C@@H](O)/C=C/[C@H]1[C@@H]2c3cccc(CCCC(=O)OCOC(=O)CCCO[N+](=O)[O-])c3O[C@@H]2C[C@@H]1O` (stereo partly drawn) [Compound 12], the “120 min NO^2−” value in test [1] was 8.5 µM. Further, in test [2], the inhibition at 0.005 µM was 42%.

Turning to `CC#CCC(C)[C@@H](O)/C=C/[C@H]1[C@@H]2c3cccc(CCCC(=O)OCCOC(=O)CCO[N+](=O)[O-])c3O[C@@H]2C[C@@H]1O` (stereo partly drawn) [Compound 20], the “120 min NO^2−” value in test [1] is 10.0 µM. In addition, in test [2], the inhibition at 0.005 µM worked out at 45%.

Regarding `CC#CCC(C)[C@@H](O)/C=C/[C@H]1[C@@H]2c3cccc(CCCC(=O)OCCCOCC(CO[N+](=O)[O-])O[N+](=O)[O-])c3O[C@@H]2C[C@@H]1O` (stereo partly drawn) [Compound 31], the “120 min NO^2−” value in test [1] came out at 16.7 µM. In test [2], the inhibition at 0.005 µM is 67%.

`CC#CCC(C)[C@@H](O)/C=C/[C@H]1[C@@H]2c3cccc(CCCC(=O)OCCCOC(=O)c4cccc(CO[N+](=O)[O-])c4)c3O[C@@H]2C[C@@H]1O` (stereo partly drawn) [Compound 26]: the “120 min NO^2−” value in test [1] is 12.6 µM. Also, the inhibition at 0.005 µM in test [2] turned out to be 22%.

In the case of `CC#CCC(C)[C@@H](O)/C=C/[C@H]1[C@@H]2c3cccc(CCCC(=O)OCOC(=O)Cc4ccc(CO[N+](=O)[O-])cc4)c3O[C@@H]2C[C@@H]1O` (stereo partly drawn) [Compound 24], the “120 min NO^2−” value in test [1] is 15.8 µM. The inhibition at 0.005 µM in test [2] came out at 47%.

With `CC#CCC(C)[C@@H](O)/C=C/[C@H]1[C@@H]2c3cccc(CCCC(=O)OCCCCO[N+](=O)[O-])c3O[C@@H]2C[C@@H]1O` (stereo partly drawn) [Compound 3], the “120 min NO^2−” value in test [1] was 16.6 µM. Moreover, the inhibition at 0.005 µM in test [2] is 57%.

Take `CC#CCC(C)[C@@H](O)/C=C/[C@H]1[C@@H]2c3cccc(CCCC(=O)OCOCC(CO[N+](=O)[O-])O[N+](=O)[O-])c3O[C@@H]2C[C@@H]1O` (stereo partly drawn) [Compound 30]: the “120 min NO^2−” value in test [1] is 17.8 µM. In addition, in test [2], the inhibition at 0.005 µM stood at 52%.

For `CC#CCC(C)[C@@H](O)/C=C/[C@H]1[C@@H]2c3cccc(CCCC(=O)OCOC(=O)O[N+](=O)[O-])c3O[C@@H]2C[C@@H]1O` (stereo partly drawn) [Compound 9], in test [1], the “120 min NO^2−” value is 18.2 µM. Besides, the inhibition at 0.005 µM in test [2] was determined as 52%.

As to `CC#CCC(C)[C@@H](O)/C=C/[C@H]1[C@@H]2c3cccc(CCCC(=O)OCCCCCO[N+](=O)[O-])c3O[C@@H]2C[C@@H]1O` (stereo partly drawn) [Compound 4], the “120 min NO^2−” value in test [1] was determined as 14.1 µM. For the same compound, in test [2], the inhibition at 0.005 µM was 43%.

Consider `CC#CCC(C)[C@@H](O)/C=C/[C@H]1[C@@H]2c3cccc(CCCC(=O)OCC(CO[N+](=O)[O-])CO[N+](=O)[O-])c3O[C@@H]2C[C@@H]1O` (stereo partly drawn) [Compound 28], for which, in test [1], the “120 min NO^2−” value was found to be 14.8 µM. For the same compound, in test [2], the inhibition at 0.005 µM is 47%.

As to `CC#CCC(C)[C@@H](O)/C=C/[C@H]1[C@@H]2c3cccc(CCCC(=O)OCCCCc4ccc(CO[N+](=O)[O-])cc4)c3O[C@@H]2C[C@@H]1O` (stereo partly drawn) [Compound 13], the “120 min NO^2−” value in test [1] turned out to be 10.1 µM. For the same compound, the inhibition at 0.005 µM in test [2] was 61%.

On to `CC#CCC(C)[C@@H](O)/C=C/[C@H]1[C@@H]2c3cccc(CCCC(=O)OCCOC(=O)C(C)CO[N+](=O)[O-])c3O[C@@H]2C[C@@H]1O` (stereo partly drawn) [Compound 21], for which the “120 min NO^2−” value in test [1] stood at 11.1 µM. Also, in test [2], the inhibition at 0.005 µM was found to be 81%.
